Consider 31 compounds from PMC10084252, “PAF‐induced inflammatory and immuno‐allergic ophthalmic diseases and their mitigation with PAF receptor antagonists: Cell and nuclear effects” (Biofactors (Oxford, England), 2022).

Like-named read-outs stand apart in the source and are kept apart here. Where no end group is shown, it is not given here.

Details of assay [1]: method as in PMID 20454616, PMID 21804199, PMID 23355413, PMID 28341636. Particulars: cited from earlier work.
Assay [2] deals with PAF receptor (Oryctolagus cuniculus, UniProt G1TEI7). Briefly: [3H]‐PAF receptor binding to rabbit platelet membranes. Particulars: read-out: [3H]‐PAF receptor binding inhibition constant (Ki, nM; Mean ± SEM). From the text:
(§1) FIGURE 5 Pharmacological profile of PAR receptor binding to platelet membranes. Figure 5A depicts the concentration‐dependent inhibition by unlabeled PAF receptor antagonists of different affinities for [^3H]‐PAF binding to rabbit platelet membranes in vitro. Figure 5B illustrates the correlation between the pharmacological profile of PAF receptor antagonists competing for [^3H]‐PAF binding to rabbit and human platelet membranes.

Assay [3] deals with T1, PAF receptor (Homo sapiens, UniProt P25105).
T1 construct: from tissue; host or cells: human platelet membranes
Briefly: [3H]‐PAF binding to human platelet membranes. From the text:
FIGURE 5 Pharmacological profile of PAR receptor binding to platelet membranes.

The test system of the next assay is naïve mice. More on the design: method as in PMID 15326102, PMID 20961214, PMID 24754407, PMID 2891830, PMID 8529415. The settings on record: cited from earlier work.
A further assay deals with rod outer segments. More on the design: method as in PMID 1427144. Particulars: lithium‐ and light‐induced retinal degenerations animal models; cited from earlier work.
A further assay relates to animals. More on the design: method as in PMID 7859817. The settings on record: intravitreally injected PAF, pretreatment; cited from earlier work.
Assay [4] relates to patients. More on the design: method as in PMID 31816871. Particulars: cited from earlier work.
Assay [5] concerns the target T1, PAF receptor. Briefly: [3H]‐WEB‐2086 binding to human platelet membranes. The settings on record: read-out: [3H]‐WEB‐2086 binding inhibition constant (Ki, nM; Mean ± SEM).
Assay [6] has as its system human conjunctival epithelial cells (HCECs). More on the design: method as in PMID 19513187. Particulars: cited from earlier work.
For assay [7] the test system is unchanged. More on the design: method as in PMID 19513187. Particulars: cited from earlier work. This is another data set of the same source.
Assay [8] relates to retinal capillary endothelial cells. More on the design: method as in PMID 12356842. Particulars: rat pups exposed to high levels of oxygen (model of ROP), prior treatment; cited from earlier work.
Assay [9] concerns human conjunctival epithelial cells (HCECs). More on the design: method as in PMID 9261768. Particulars: cited from earlier work; for EC50: read-out: EC50 for increase of [3H]‐IPs.
The subject of a further assay is photoreceptors. More on the design: method as in PMID 15979612. The settings on record: retinal ischemia / oxidative stress; cited from earlier work.
A further assay relates to human chronic diseases. More on the design: method as in PMID 31816871. The settings on record: ulcerative colitis, myocardiac infarction, organ failure associated with pancreatitis, cognitive decline after bypass surgery, psoriasis; cited from earlier work.
The subject of a further assay is HCEPI/CEPI‐17‐CL4 cells. More on the design: method as in PMID 9856766, PMID 9559896, PMID 9863665, PMID 10235542, PMID 20187806. The settings on record: cited from earlier work.
Another assay relates to HIS and PAF receptors. More on the design: method as in PMID 1793070. The settings on record: cited from earlier work.
The subject of assay [10] is patients suffering from rhinitis. More on the design: method as in PMID 23459334, PMID 31470575. The settings on record: oral, 4‐week period of dosing; cited from earlier work.
On the set-up of assay [11]: method as in PMID 31816871. Particulars: cited from earlier work.
The test system of a further assay is asthma patients. More on the design: method as in PMID 31816871. Particulars: cited from earlier work.
Details of assay [12]: method as in PMID 31816871. The settings on record: cited from earlier work. This is another data set of the same source.
The test system of assay [13] is laser‐induced choroidal neovascularization (CNV) in mice. More on the design: method as in PMID 23826375. Particulars: cited from earlier work.
The test system of a further assay is rats. More on the design: method as in PMID 9845270. Particulars: streptozotocin‐induced diabetes in rats; cited from earlier work.
On the set-up of assay [14]: method as in PMID 31816871. Particulars: cited from earlier work. The source holds these as a separate data set.
In assay [15] the test system is patients. More on the design: method as in PMID 31816871. Particulars: cited from earlier work. The source holds these as a separate data set.
Assay [16] deals with PAF receptors on rabbit and human platelets. The assay is described as follows: PAF receptor binding on platelets. The settings on record: Figure 5.
From the text: as §1

In assay [17] the target is PAF receptors in the bovine and rabbit cornea. More on the design: method as in PMID 10067986. The settings on record: cited from earlier work.
The mark [18] stands for this setting: human platelet membranes, read-out: [3H]‐PAF receptor binding inhibition constant (Ki, nM; Mean ± SEM).

PAF receptor (Oryctolagus cuniculus, UniProt G1TEI7), sequence (G1TEI7 1-342): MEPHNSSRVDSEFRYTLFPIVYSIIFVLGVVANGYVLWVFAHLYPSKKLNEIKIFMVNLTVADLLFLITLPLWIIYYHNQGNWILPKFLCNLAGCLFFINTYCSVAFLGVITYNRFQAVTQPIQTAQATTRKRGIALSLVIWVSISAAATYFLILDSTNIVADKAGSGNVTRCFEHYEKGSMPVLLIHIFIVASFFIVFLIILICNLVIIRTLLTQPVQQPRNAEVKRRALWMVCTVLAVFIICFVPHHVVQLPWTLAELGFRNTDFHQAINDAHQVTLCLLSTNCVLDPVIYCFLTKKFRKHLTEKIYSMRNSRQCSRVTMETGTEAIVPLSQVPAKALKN
T1 sequence (P25105 whole entry): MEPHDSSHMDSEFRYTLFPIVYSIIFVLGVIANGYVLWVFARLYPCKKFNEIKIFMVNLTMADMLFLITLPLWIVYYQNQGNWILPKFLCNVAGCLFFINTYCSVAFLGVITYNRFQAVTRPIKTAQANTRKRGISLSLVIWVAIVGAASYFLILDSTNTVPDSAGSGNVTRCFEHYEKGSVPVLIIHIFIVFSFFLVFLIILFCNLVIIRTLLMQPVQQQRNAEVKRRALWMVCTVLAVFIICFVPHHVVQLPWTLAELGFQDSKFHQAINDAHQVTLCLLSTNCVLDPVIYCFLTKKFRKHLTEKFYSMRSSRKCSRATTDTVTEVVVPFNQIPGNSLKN

In the case of `C#Cc1cccc2c1c(C(=O)c1ccc(Cn3c(C)nc4cnccc43)c(F)c1)cn2C(=O)N(C)C` [ABT‐491], the “Pain induced by ATP‐triggered PAF release” value in assay [1] is “blocked”.
Consider `CN(C)C(=O)n1cc(C(=O)c2ccn3c2CS[C@@H]3c2cccnc2)c2ccc(-c3ccc(F)cc3)cc21` [A‐85783], for which, on PAF receptor [2], the inhibition constant (Ki) worked out at 6.9 ± 1 nM.
In turn, `C#Cc1cccc2c1c(C(=O)c1ccc(Cn3c(C)nc4cnccc43)c(F)c1)cn2C(=O)N(C)C` [A‐137491] showed a Ki at PAF receptor [3] of 3.9 ± 0.5 nM.
For `COc1ccc(NC(=S)N2CCc3c(sc4c3C(c3ccccc3Cl)=NCc3nnc(C)n3-4)C2)cc1` [BN‐50730 (Rocipafant) LAU‐8080, Rocipafant], the Ki at PAF receptor [2] amounted to 44.8 ± 7.2 nM.
`COc1ccc(SCC(=S)N2CCc3c(sc4c3C(c3ccccc3Cl)=NCc3nnc(C)n3-4)C2)cc1OC` [BN‐50739]: the inhibitory constant (Ki) is 28.6 ± 8.4 nM on PAF receptor [2] and 53.4 ± 1.9 nM at PAF receptor [3] (setting [18]).
On to `CC1C(=O)OC2C(O)C34C5CC(C(C)(C)C)C36C(OC(=O)C6O)OC4(C(=O)O5)C12O` (stereo not drawn) [BN‐52021(Ginkolide B), Ginkgolide B], for which, in the assay with naïve mice, the “PAF‐induced ocular surface neovascularization” value is listed as “inhibited”. For the same compound, the “Damage to rod outer segments” value with rod outer segments was “effectively suppressed”. Besides, the “PAF‐induced disruption of choroidal endothelial cell layer and polymorphonuclear leukocyte infiltration” value in the assay on animals is recorded as “mostly abolished”. For the same compound, the “PAF levels in patients” value with patients [4] was “reduction”.
For `CCCCCCCCCCCCCCCCCCNC(=O)OCC(COP(=O)([O-])OCC[n+]1ccsc1)OC` (stereo not drawn) [CV‐3988], the Ki came out at 2900 ± 240 nM on PAF receptor [2], 3090 ± 889 nM on PAF receptor [3] (setting [18]) and 3780 ± 759 nM on PAF receptor [5]. In addition, the “Antagonism of PAF‐induced [Ca2+]i mobilization” value in assay [6] was “antagonized”. Further, the “Effect on PAF‐induced synthesis and secretion of IL‐6, IL‐8 and GM‐CSF” value in [7] is on record as “curtailed”. Besides, the “PAF‐induced ocular surface neovascularization” value with naïve mice is given as “inhibited”. Besides, the “Loss of retinal capillary endothelial cells” value in [8] was “reduced”.
Consider `Cc1nnc2n1-c1sc3c(c1C(c1ccccc1Cl)=N[C@H]2C)CCN(C(=O)C1CC1)C3` [E‐6123], for which the Ki at PAF receptor [2] worked out at 9.3 ± 0.3 nM.
`NCCc1c[nH]cn1` [HIS, histamine]: the half-maximal effective concentration (EC50) in assay [9] was 3100 nM.
In the case of `CC1=C(C(=O)OCCOc2ccc(Cl)c(Cl)c2)C(C)C(C(=O)OC(CN2CCOCC2)CN2CCOCC2)=C(C)N1` (stereo not drawn) [LAU0901], the “Protection of photoreceptors and their terminals” value with photoreceptors is recorded as “efficaciously protected”.
Regarding `CCCCC/C=C\C\C=C/C=C/C=C/[C@@H](SC[C@H](NC(=O)CC[C@H](N)C(=O)O)C(=O)NCC(=O)O)[C@@H](O)CCCC(=O)O` [LTC4], the EC50 in assay [9] was 300 nM.
In the case of `CCOC(=O)[C@H](CC(C)C)N(C)S(=O)(=O)c1ccc(Cn2c(C)nc3cnccc32)cc1` [Lexipafant], the “Efficacy in multiple human chronic diseases” value in the assay on human chronic diseases is on record as “lack of efficacy”.
Turning to `CCOC(=O)C1=C(c2ccc(-n3c(C)nc4cnccc43)cc2)NC(C)=C(C(=O)Nc2ccccn2)[C@H]1c1ccccc1Cl` [Modipafant], the “Efficacy in multiple human chronic diseases” value with human chronic diseases is “lack of efficacy”.
As for `CCOC[C@H](CC(C)C)N(C)S(=O)(=O)c1ccc(Cn2c(C)nc3cnccc32)cc1` [Nupafant], the Ki on PAF receptor [2] was 1.7 ± 0.6 nM.
For `CCCCCCCCOc1ccccc1C(=O)Nc1ccc(C(=O)OCC[N+](C)(CC)CC)cc1` [Octylonium], at PAF receptor [3] (setting [18]), the inhibition constant (Ki) stood at 4335 ± 17.8 nM.
Consider `COC(=O)C1=C(C)NC(C)=C(C(=O)OCCSc2ccccc2)C1C` (stereo not drawn) [PCA‐4248], for which the Ki on PAF receptor [3] (setting [18]) stood at 634 nM. Besides, the “Antagonism of PAF‐induced [Ca2+]i mobilization” value in assay [6] is “antagonized”. The “Effect on PAF‐induced synthesis and secretion of IL‐6, IL‐8 and GM‐CSF” value in assay [7] is given as “curtailed”. In addition, in the assay with HCEPI/CEPI‐17‐CL4 cells, the “Effect on PAF‐induced IPs production” value is “blocked”.
In the case of `CCCCC[C@H](O)/C=C/[C@@H]1[C@@H](C/C=C\CCCC(=O)O)[C@@H](O)C[C@H]1O` [PGF2α], the “Stimulation of [3H]‐IPs (in words)” value in assay [9] is “inactive”.
Consider `CCCCCCCCCCCCCCCCCCNC(=O)OC[C@@H](COCCCC[n+]1ccsc1)OC(=O)OC` [RO‐19‐3704], for which the Ki at PAF receptor [2] is 201 ± 22.5 nM.
Take `Cc1cncc(CN2CCC(=C3c4ccc(Cl)cc4CCc4cccnc43)CC2)c1` [SCH‐37370 (Rupatadine), Rupatadine]: the “Affinities and potencies at both HIS and PAF receptors (in words)” value in the assay on HIS and PAF receptors is recorded as “micromolar”. Also, in assay [10], the “Nasal discharge, sneezing and nasal itching” value was “significantly reduced”; the Ocular itching entry was “significantly reduced”. Moreover, in assay [11], the “Effects in chronic idiopathic urticaria and allergic rhino‐conjunctivitis” value was “beneficial effects”.
Regarding `C[C@@H]1S[C@H](c2cccnc2)N(C)C1=O` [SM‐10661], the Ki on PAF receptor [2] was 7490 ± 875 nM; on PAF receptor [3] (setting [18]), 22800 nM; at PAF receptor [5], 9850 ± 1350 nM.
`CC(C)c1cc(C(C)C)c(-c2csc(N(CCN(C)C)Cc3cccnc3)n2)c(C(C)C)c1` [SR27417A]: the “Efficacy in asthma patients” value with asthma patients was “modest efficacy”. Moreover, the “Efficacy in multiple human chronic diseases” value with human chronic diseases is listed as “lack of efficacy”.
Regarding `CCC[n+]1cc(Br)cc(C(=O)N(CCC(=O)NCCOC(=O)N2CCc3ccccc3C2)c2ccccc2)c1.O=[N+]([O-])[O-]` [TCV‐309], the Ki was determined as 5.5 ± 0.2 nM at PAF receptor [2] and 9.4 ± 3.1 nM at PAF receptor [3] (setting [18]). In addition, the “Organ dysfunction and morbidity linked to septic shock” value in assay [12] is “reduction”.
On to `Cc1nnc2n1-c1sc(CCC(=O)N3CCOCC3)cc1C(c1ccccc1Cl)=NC2` [WEB‐2086], for which the “Choroidal neovascularization and subretinal fibrosis induced by PAF” value in assay [13] is recorded as “inhibited”. The “Fluoresceine leakage (retinal vascular leakage) after laser‐induced CNV” value in [13] (mice, prior treatment, intraperitoneal and intravitreal administration) is recorded as “blockade”. In the assay on rats, the “Retinal blood vessel density” value is “helped preserve”. In addition, in assay [14], the “Erythema induced by UV‐light” value is on record as “reduction”.
On to `CC(C)(CCN1CCN(C(=O)C2CSC(c3cccnc3)N2)CC1)c1ccccc1` (stereo not drawn) [YM‐264], for which the values for the inhibition constant Ki on PAF receptor [2] and on PAF receptor [3] (setting [18]) were 5.1 ± 0.6 nM and 7.3 ± 1.8 nM, respectively.
Turning to `Cc1nnc2n1-c1sc(CCc3ccc(CC(C)C)cc3)cc1C(c1ccccc1Cl)=NC2C` (stereo not drawn) [Y‐24180], in the assay on patients [15], the Bronchial hyperresponsiveness result is reported as “improvement”.
Turning to `Clc1ccc2c(c1)CCc1cccnc1C2=C1CCNCC1` [des‐loratadine], in assay [10], the “Nasal discharge, sneezing and nasal itching” value is listed as “significantly reduced”; the Ocular itching entry was “significantly reduced”.
As to Hexanolamine, the Ki at PAF receptor [2] was 164 ± 15.4 nM.
As for “bradykinin (RPPGFSPFR; Bradykinin; UniProt P01042 381-389, looked up) [BK, mast cell mediator]”, in [9], the concentration for a half-maximal effect (EC50) is 0.83 nM.
Regarding “endothelin (CSCSSLMDKECVYFCHLDIIW; ends and bridges not checked; cysteine pairing not given here; UniProt P05305 53-73, looked up)”, the “Stimulation of [3H]‐IPs (in words)” value in [9] was “inactive”.
Consider platelet‐activating factor [PAF], for which the inhibition constant (Ki) was 3.7 ± 0.4 nM at PAF receptor [2], 3.1 ± 0.6 nM at PAF receptor [3] (setting [18]) and 26.5 ± 2 nM at PAF receptor [5]. In addition, the Kd in assay [16] was 0.5 nM; in [17] it was 0.8 to 4.3 nM. The EC50 was 4.5 nM in assay [9] and 0.81 nM in assay [6] (read-out: EC50 for [Ca2+]i mobilization).
Take “substance P (RPKPQQFFGLM; ends and bridges not checked; UniProt P20366 58-68, looked up)”: in assay [9], the “Stimulation of [3H]‐IPs (in words)” value is “inactive”.
